# Laboratory results: patent US5667825A (Kellogg Company, priority 1996, dated 1997)
# “Also recorded” adds a separate entry of the source.
# How the values were obtained:
# [1] = Oxidative stability of iron fortified cereals in hot room (hexanal, rancid odor, off odor); assay type: physicochemical; conditions: for Off Odor Value / Rancid Odor Value / Hexanal Value: measured at two and four weeks (interval of value not stated); for Hexanal Value: ± 95% confidence interval
# Procedure: The feasibility of using other iron sources was also tested. […] The individual tests are discussed in further detail below.
# These samples were used for comparative stability and sensory analysis.
# In order to test the stability of the iron fortified cereals, the R-T-E cereal samples prepared using four different sources of iron were placed in a hot room and exposed to a temperature of 100° F. over a four week period. Measurements were taken at two and four week intervals.
# [2] = tested on: Sprague Dawley rats; assay: Rat hemoglobin regeneration method, relative iron bioavailability (modified AOAC); assay type: in vivo
# Procedure: The relative iron availability of various iron compounds in a ready-to-eat breakfast cereal was tested using a widely accepted method, commonly referred to as the rat hemoglobin regeneration method, (modified AOAC method for assessment of relative iron bioavailability), see Williams, S. ed. Official methods of analysis of the Association of Official Analytical Chemists, 14th ed. Arlington, Va. AOAC, 1984; Fritz, J. C. et al., Collaborative Study of rat hemoglobin repletion test for bioavailability of iron, AOAC 1974, 57: 513-517. The testing for relative bioavailability of the various iron compounds was carried out in a series of separate experiments. In each of these experiments, ferrous sulfate was used as the standard or control compound.
# Sprague Dawley rats, individually housed in temperature and light controlled units, were fed an iron deficient diet obtained from Harland Tekland Laboratories for 24 days. After this iron depletion phase, the rats were weighed and blood was drawn to test for baseline hemoglobin concentrations. These anemic animals, with hemoglobin levels between […], were then randomly assigned to the control and test groups. Ferrous sulfate and the iron compounds in the cereal were added at concentrations of 6 and 18 and 24 mg iron/kg to the control and test diets. These diets were then fed to groups of ten animals, ad libitum, for 14 days. Iron levels in the diets, were verified by atomic absorption spectrometry (Bolin et al., J. Assoc. Off. Anal. Chem. 1977, 60: 1170-1174). After the 14 day test period, hemoglobin concentrations were determined for all animals.
# The bioavailability of each iron source tested relative to ferrous sulfate, was calculated by comparing gain in hemoglobin with the iron concentration in the diet by the slope ratio procedure (Finney, D. J., Statistical methods in biological assay. 2nd ed. 1964; Amine et L., Biological assessment of available iron in food products, J. Agric. Food Chem. 1974, 22: 470-476.). […]
# [3] = in some diets; cited from earlier work
Molecule,Off Odor Value ([1]; hot room 100° F.),Rancid Odor Value ([1]; hot room 100° F.),Hexanal Value ([1]; hot room 100° F.),Stability in continuing stability tests ([1]; expected in continuing tests),"Oxidative stability (rancid odor, off odor, hexanal), result in words ([1]; hot room 100° F., four weeks)","Slope Value (gain in hemoglobin vs iron concentration in the diet) ([2]; 6, 18 and 24 mg iron/kg diet, 14 days, ± 95% confidence interval)","Iron bioavailability / absorption, result in words ([2]; anemic rats, versus ferrous sulfate and reduced iron)",Bioavailability versus FeSO4 complex [3],"Slope Ratio (bioavailability relative to ferrous sulfate) ([2]; rat, in vivo, 20160 min)"
"O=C([O-])/C=C/C(=O)[O-].[Fe+2] [Ferrous Fumarate, ferrous fumarate, reference compound]",2.67 ± 0.41,2.89 ± 0.62,2.37 ± 1.00,–,–,–,–,–,–
"O=C([O-])CN(CCN(CC(=O)[O-])CC(=O)[O-])CC(=O)[O-].[Fe+3].[Na+] [Ferric EDTA, sodium ferric ethylenediaminetetraacetic acid complex]",0.78 ± 0.44,0.56 ± 0.43,0.40 ± 0.22,expected to improve in stability in comparison to the other ferric samples tested,"statistically significant lower level of rancid odor, off odor and hexanal value; also recorded: most stable of the products tested with the lowest hexanal, rancid odor and off odor values",0.31 ± 0.03,absorbed at a rate not significantly different from ferrous sulphate and significantly better than reduced iron; also recorded: superior in bioavailability to reduced iron,two to three times more bioavailable,–
ferrous sulfate [reference compound],2.33 ± 0.48,1.22 ± 0.57,2.13 ± 2.02,–,–,–,–,–,1.00
